Bridge positions count the residues as written; N and C are the ends. Square brackets hold non-standard residues; d marks the D form. Peptide text beside a SMILES is read from it. * marks the point of attachment. ξ: configuration not given here. Phe(4-COOH) = N[C@@H](Cc1ccc(C(=O)O)cc1)C(=O)O; Bip = N[C@@H](Cc1ccc(-c2ccccc2)cc1)C(=O)O; Phe(3-Me) = Cc1cccc(C[C@H](N)C(=O)O)c1; 4Pal = N[C@@H](Cc1ccncc1)C(=O)O; Cha = N[C@@H](CC1CCCCC1)C(=O)O; Cit = NC(=O)NCCC[C@H](N)C(=O)O; Ile(3ξ) = CCC(C)[C@H](N)C(=O)O; Pip = O=C(O)[C@@H]1CCCCN1; dDab = NCC[C@@H](N)C(=O)O; Carboxymethyl = O=C(O)C*; NMeA = CN[C@@H](C)C(=O)O; Orn = NCCC[C@H](N)C(=O)O; Dab = NCC[C@H](N)C(=O)O; Dap = NC[C@H](N)C(=O)O
Biological target: T1, PE-labeled human PD-L1-Ig binding to Jurkat cell line over-expressing human PD-1 (Jurkat-PD-1) (Homo sapiens, UniProt Q15116)
T1 construct: expressed in transfected cells; host or cells: Jurkat
T1 sequence (Q15116 25-288): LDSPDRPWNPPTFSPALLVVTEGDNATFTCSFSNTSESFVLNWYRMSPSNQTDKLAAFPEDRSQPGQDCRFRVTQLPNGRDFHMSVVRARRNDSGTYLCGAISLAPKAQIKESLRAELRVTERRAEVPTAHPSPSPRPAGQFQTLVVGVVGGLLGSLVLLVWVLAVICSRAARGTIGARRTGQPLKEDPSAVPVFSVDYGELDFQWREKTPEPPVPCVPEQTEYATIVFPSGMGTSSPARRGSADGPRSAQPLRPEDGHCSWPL
Test: Jurkat-PD-1 Cell Binding High-Content Screening Assay (CBA): Method 1
Conditions: Jurkat-hPD-1 cells, PE-labeled PD-L1-Ig 20 nM final; read-out: Jurkat HPDL1 PD1 IC50 (uM) (Method 1)

SMILES | IC50
Cc1cccc(C[C@@H]2NC(=O)[C@H](CC(=O)O)NC(=O)[C@H](Cc3ccc(OCC(=O)O)cc3)NC(=O)[C@H](CN)NC(=O)CSC[C@@H](C(N)=O)NC(=O)[C@H](CCC(=O)O)NC(=O)[C@H](C(C)C)NC(=O)[C@H](CC3CCCCC3)NC(=O)[C@H](CCN)NC(=O)[C@@H](CC(C)C)NC(=O)[C@@H]3CCCCN3C(=O)[C@H](Cc3ccc(OCC(=O)O)cc3)NC(=O)[C@H](Cc3ccc(-c4ccccc4)cc3)NC(=O)[C@H](Cc3ccc(OCC(=O)O)cc3)NC2=O)c1 [Compound 1894] ({CH2CO}-[Dap]Y(Carboxymethyl)D[Phe(3-Me)]Y(Carboxymethyl)[Bip]Y(Carboxymethyl)[Pip][dL][Dab][Cha]VEC-NH2; thioether N-14) | 0.3 µM
Cc1cccc(C[C@@H]2NC(=O)[C@H](CC(=O)O)NC(=O)[C@H](Cc3ccc(OCC(=O)O)cc3)NC(=O)[C@H](CN)NC(=O)CSC[C@@H](C(N)=O)NC(=O)[C@H](CC(N)=O)NC(=O)[C@H](C(C)C)NC(=O)[C@H](CC3CCCCC3)NC(=O)[C@H](CCN)NC(=O)[C@@H](CC(C)C)NC(=O)[C@@H]3CCCCN3C(=O)[C@H](Cc3ccc(OCC(=O)O)cc3)NC(=O)[C@H](Cc3ccc(-c4ccccc4)cc3)NC(=O)[C@H](Cc3ccc(OCC(=O)O)cc3)NC2=O)c1 [Compound 1895] ({CH2CO}-[Dap]Y(Carboxymethyl)D[Phe(3-Me)]Y(Carboxymethyl)[Bip]Y(Carboxymethyl)[Pip][dL][Dab][Cha]VNC-NH2; thioether N-14) | 0.11 µM
Cc1cccc(C[C@@H]2NC(=O)[C@H](CC(=O)O)NC(=O)[C@H](Cc3ccc(OCC(=O)O)cc3)NC(=O)[C@H](CN)NC(=O)CSC[C@@H](C(N)=O)NC(=O)[C@H](CCC(N)=O)NC(=O)[C@H](C(C)C)NC(=O)[C@H](CC3CCCCC3)NC(=O)[C@H](CCN)NC(=O)[C@@H](CC(C)C)NC(=O)[C@@H]3CCCCN3C(=O)[C@H](Cc3ccc(OCC(=O)O)cc3)NC(=O)[C@H](Cc3ccc(-c4ccccc4)cc3)NC(=O)[C@H](Cc3ccc(OCC(=O)O)cc3)NC2=O)c1 [Compound 1896] ({CH2CO}-[Dap]Y(Carboxymethyl)D[Phe(3-Me)]Y(Carboxymethyl)[Bip]Y(Carboxymethyl)[Pip][dL][Dab][Cha]VQC-NH2; thioether N-14) | 0.19 µM
Cc1cccc(C[C@@H]2NC(=O)[C@H](CC(=O)O)NC(=O)[C@H](Cc3ccc(C(=O)O)cc3)NC(=O)[C@H](Cc3ccncc3)NC(=O)CSC[C@@H](C(N)=O)NC(=O)[C@H]([C@@H](C)O)NC(=O)[C@H](C(C)C)NC(=O)[C@H](CC(C)C)NC(=O)[C@H](CCN)NC(=O)[C@@H](CC(C)C)NC(=O)[C@H](C)N(C)C(=O)[C@H](CCCNC(N)=O)NC(=O)[C@H](Cc3ccc(-c4ccccc4)cc3)NC(=O)[C@H](C(C)C)NC2=O)c1 [Compound 1898] ({CH2CO}-[4Pal][Phe(4-COOH)]D[Phe(3-Me)]V[Bip][Cit][NMeA][dL][Dab]LVTC-NH2; thioether N-14) | 0.07 µM
CCC(C)[C@@H]1NC(=O)[C@H](Cc2ccc(-c3ccccc3)cc2)NC(=O)[C@H](C(C)C)NC(=O)[C@H](Cc2cccc(C)c2)NC(=O)[C@H](CC(=O)O)NC(=O)[C@H](Cc2ccc(C(=O)O)cc2)NC(=O)[C@H](Cc2ccncc2)NC(=O)CSC[C@@H](C(N)=O)NC(=O)[C@H](CCCN)NC(=O)[C@H](C(C)C)NC(=O)[C@H](CC(C)C)NC(=O)[C@H](CCN)NC(=O)[C@@H](CC(C)C)NC(=O)[C@H](C)N(C)C1=O (stereo partly drawn) [Compound 1900] ({CH2CO}-[4Pal][Phe(4-COOH)]D[Phe(3-Me)]V[Bip][Ile(3ξ)][NMeA][dL][Dab]LV[Orn]C-NH2; thioether N-14) | 0.05 µM
CC(C)C[C@@H]1NC(=O)[C@H](Cc2c[nH]c3ccccc23)NC(=O)[C@H](CC(=O)O)NC(=O)[C@H](Cc2ccncc2)NC(=O)[C@H](Cc2ccc(OCC(=O)O)cc2)NC(=O)CSC[C@@H](C(=O)N[C@H](CC(N)=O)C(N)=O)NC(=O)[C@H]([C@@H](C)O)NC(=O)[C@H](C(C)C)NC(=O)[C@H](CC2CCCCC2)NC(=O)[C@H](CCN)NC(=O)[C@@H](CC(C)C)NC(=O)[C@H](C)N(C)C(=O)[C@H](C(C)C)NC(=O)[C@H](Cc2ccc(-c3ccccc3)cc2)NC1=O [Compound 1903] ({CH2CO}-Y(Carboxymethyl)[4Pal]DWL[Bip]V[NMeA][dL][Dab][Cha]VTC[dN]-NH2; thioether N-14) | 0.04 µM
CC(C)C[C@@H]1NC(=O)[C@H](Cc2c[nH]c3ccccc23)NC(=O)[C@H](CC(=O)O)NC(=O)[C@H](Cc2ccncc2)NC(=O)[C@H](Cc2ccc(OCC(=O)O)cc2)NC(=O)CSC[C@@H](C(=O)N[C@@H](CC(N)=O)C(N)=O)NC(=O)[C@H](CO)NC(=O)[C@H](C(C)C)NC(=O)[C@H](CC2CCCCC2)NC(=O)[C@H](CCN)NC(=O)[C@@H](CC(C)C)NC(=O)[C@H](C)N(C)C(=O)[C@H](Cc2ccc(O)cc2)NC(=O)[C@H](Cc2ccc(-c3ccccc3)cc2)NC1=O [Compound 1906] ({CH2CO}-Y(Carboxymethyl)[4Pal]DWL[Bip]Y[NMeA][dL][Dab][Cha]VSCN-NH2; thioether N-14) | 0.05 µM
CC(C)C[C@@H]1NC(=O)[C@H](Cc2c[nH]c3ccccc23)NC(=O)[C@H](CC(=O)O)NC(=O)[C@H](Cc2ccncc2)NC(=O)[C@H](Cc2ccc(OCC(=O)O)cc2)NC(=O)CSC[C@@H](C(=O)N[C@H](CC(N)=O)C(N)=O)NC(=O)[C@H](CO)NC(=O)[C@H](C(C)C)NC(=O)[C@H](CC2CCCCC2)NC(=O)[C@H](CCN)NC(=O)[C@@H](CC(C)C)NC(=O)[C@H](C)N(C)C(=O)[C@H](Cc2ccc(O)cc2)NC(=O)[C@H](Cc2ccc(-c3ccccc3)cc2)NC1=O [Compound 1907] ({CH2CO}-Y(Carboxymethyl)[4Pal]DWL[Bip]Y[NMeA][dL][Dab][Cha]VSC[dN]-NH2; thioether N-14) | 0.12 µM

Compounds with a lower IC50, results first:

IC50 | SMILES
0.01 µM | Cc1cccc(C[C@@H]2NC(=O)[C@H](CC(=O)O)NC(=O)[C@H](Cc3ccc(C(=O)O)cc3)NC(=O)[C@H](Cc3ccncc3)NC(=O)CSC[C@@H](C(N)=O)NC(=O)[C@H](CCCN)NC(=O)[C@H](C(C)C)NC(=O)[C@H](CC3CCCCC3)NC(=O)[C@H](CCN)NC(=O)[C@@H](CC(C)C)NC(=O)[C@H](C)N(C)C(=O)[C@H](CCCNC(N)=O)NC(=O)[C@H](Cc3ccc(-c4ccccc4)cc3)NC(=O)[C@H](C(C)C)NC2=O)c1 [Compound 1897] ({CH2CO}-[4Pal][Phe(4-COOH)]D[Phe(3-Me)]V[Bip][Cit][NMeA][dL][Dab][Cha]V[Orn]C-NH2; thioether N-14)
0.01 µM | CCC(C)[C@@H]1NC(=O)[C@H](Cc2ccc(-c3ccccc3)cc2)NC(=O)[C@H](C(C)C)NC(=O)[C@H](Cc2cccc(C)c2)NC(=O)[C@H](CC(=O)O)NC(=O)[C@H](Cc2ccc(C(=O)O)cc2)NC(=O)[C@H](Cc2ccncc2)NC(=O)CSC[C@@H](C(N)=O)NC(=O)[C@H](CCCN)NC(=O)[C@H](C(C)C)NC(=O)[C@H](CC2CCCCC2)NC(=O)[C@H](CCN)NC(=O)[C@@H](CC(C)C)NC(=O)[C@H](C)N(C)C1=O (stereo partly drawn) [Compound 1899] ({CH2CO}-[4Pal][Phe(4-COOH)]D[Phe(3-Me)]V[Bip][Ile(3ξ)][NMeA][dL][Dab][Cha]V[Orn]C-NH2; thioether N-14)
0.01 µM | CC(C)C[C@@H]1NC(=O)[C@H](Cc2c[nH]c3ccccc23)NC(=O)[C@H](CC(=O)O)NC(=O)[C@H](Cc2ccncc2)NC(=O)[C@H](Cc2ccc(OCC(=O)O)cc2)NC(=O)CSC[C@@H](C(=O)N[C@@H](CC(N)=O)C(N)=O)NC(=O)[C@H](CO)NC(=O)[C@H](C(C)C)NC(=O)[C@H](CC2CCCCC2)NC(=O)[C@H](CCN)NC(=O)[C@@H](CC(C)C)NC(=O)[C@H](C)N(C)C(=O)[C@H](C(C)C)NC(=O)[C@H](Cc2ccc(-c3ccccc3)cc2)NC1=O [Compound 1901] ({CH2CO}-Y(Carboxymethyl)[4Pal]DWL[Bip]V[NMeA][dL][Dab][Cha]VSCN-NH2; thioether N-14)
0.01 µM | CC(C)C[C@@H]1NC(=O)[C@H](Cc2c[nH]c3ccccc23)NC(=O)[C@H](CC(=O)O)NC(=O)[C@H](Cc2ccncc2)NC(=O)[C@H](Cc2ccc(OCC(=O)O)cc2)NC(=O)CSC[C@@H](C(=O)N[C@@H](CC(N)=O)C(N)=O)NC(=O)[C@H]([C@@H](C)O)NC(=O)[C@H](C(C)C)NC(=O)[C@H](CC2CCCCC2)NC(=O)[C@H](CCN)NC(=O)[C@@H](CC(C)C)NC(=O)[C@H](C)N(C)C(=O)[C@H](C(C)C)NC(=O)[C@H](Cc2ccc(-c3ccccc3)cc2)NC1=O [Compound 1902] ({CH2CO}-Y(Carboxymethyl)[4Pal]DWL[Bip]V[NMeA][dL][Dab][Cha]VTCN-NH2; thioether N-14)
0.01 µM | CC(C)C[C@@H]1NC(=O)[C@H](Cc2c[nH]c3ccccc23)NC(=O)[C@H](CC(=O)O)NC(=O)[C@H](Cc2ccncc2)NC(=O)[C@H](Cc2ccc(OCC(=O)O)cc2)NC(=O)CSC[C@@H](C(=O)N[C@H](CCN)C(N)=O)NC(=O)[C@H]([C@@H](C)O)NC(=O)[C@H](C(C)C)NC(=O)[C@H](CC2CCCCC2)NC(=O)[C@H](CCN)NC(=O)[C@@H](CC(C)C)NC(=O)[C@H](C)N(C)C(=O)[C@H](C(C)C)NC(=O)[C@H](Cc2ccc(-c3ccccc3)cc2)NC1=O [Compound 1904] ({CH2CO}-Y(Carboxymethyl)[4Pal]DWL[Bip]V[NMeA][dL][Dab][Cha]VTC[dDab]-NH2; thioether N-14)
0.01 µM | CC(C)C[C@@H]1NC(=O)[C@H](Cc2c[nH]c3ccccc23)NC(=O)[C@H](CC(=O)O)NC(=O)[C@H](Cc2ccncc2)NC(=O)[C@H](Cc2ccc(OCC(=O)O)cc2)NC(=O)CSC[C@@H](C(=O)N[C@@H](CCN)C(N)=O)NC(=O)[C@H](CO)NC(=O)[C@H](C(C)C)NC(=O)[C@H](CC2CCCCC2)NC(=O)[C@H](CCN)NC(=O)[C@@H](CC(C)C)NC(=O)[C@H](C)N(C)C(=O)[C@H](C(C)C)NC(=O)[C@H](Cc2ccc(-c3ccccc3)cc2)NC1=O [Compound 1905] ({CH2CO}-Y(Carboxymethyl)[4Pal]DWL[Bip]V[NMeA][dL][Dab][Cha]VSC[Dab]-NH2; thioether N-14)
